Experimental data reported in patent US20190115105A1, “TANDEM DUPLICATOR PHENOTYPE (TDP) AS A DISTINCT GENOMIC CONFIGURATION IN CANCER AND USE THEREOF” (The Jackson Laboratory, priority 2016, published 2019).
Read-outs that look alike come from different tables or passages of the source.

Assays:
[1] = system: HCC2157; details: HCC2157, TNBC, TDP, TDP Score 0.076; GDSC data base; cited from earlier work
[2] = system: HCC1599; details: HCC1599, TNBC, non-TDP, TDP Score −0.447; GDSC data base; cited from earlier work
[3] = system: HCC1187; details: HCC1187, TNBC, TDP, TDP Score 0.152; GDSC data base; cited from earlier work
[4] = system: HCC2218; details: HCC2218, ERBB2+, non-TDP, TDP Score −0.849; GDSC data base; cited from earlier work
[5] = system: HCC1806; assay: Cell viability IC50 (WST-8), HCC1806; format: cell-based, human; details: HCC1806, TDP Score 0.08, 72 hours
From the text: (§1) All of the cell lines were purchased from the American Type Culture Collection (ATCC). They were authenticated by Short Tandem Repeat (STR) DNA profiling and regularly tested for Mycoplasma contamination using the MycoAlert PLUS Mycoplasma Detection Kit (Lonza). MB436, HCC38, HCC1187, HCC1395, MDA-MB231, HCC1937, HCC1599, HCC1143, HCC70, DU4475, MDA-MB157, HCC1806 were maintained in RPMI with 10% fetal bovine serum (FBS). BT549 was maintained in DMEM with 10% v/v FBS, and Hs578T in DMEM with 10% FBS and 0.01 mg/ml bovine insulin. IC50 value determinations were obtained by plating target cells in 96 well plates at a density of 1-5×10^3 cells per well. After twenty-four hours, cisplatin (Santa Cruz Biotechnology, Inc.) or carboplatin (Selleck Chemicals) were added to the culture medium in half-log serial dilutions in the range of 3.3 nM to 100 μM, in triplicate wells. Cells were incubated for 72 hours before assessing cell viability using the WST-8 assay (Dojindo Molecular Technologies, Inc.). Absorbance values were normalized to control wells (medium only) and IC50 values were calculated using the IC50R package. Two independent replicate experiments were carried out for each cell line and each treatment and the average IC50 value from the two experiments was used for the analysis.

[6] = system: HCC38; assay: Cell viability IC50 (WST-8), HCC38; format: cell-based, human; details: HCC38, TDP Score 0.367, 72 hours
From the text: as §1

[7] = system: HCC1937; assay: Cell viability IC50 (WST-8), HCC1937; format: cell-based, human; details: HCC1937, TDP Score −0.17, 72 hours
From the text: as §1

[8] = system: BT549; assay: Cell viability IC50 (WST-8), BT549; format: cell-based, human; details: BT549, TDP Score −0.3, 72 hours
From the text: as §1

[9] = system: MB157; assay: Cell viability IC50 (WST-8), MB157; format: cell-based, human; details: MB157, TDP Score −0.39, 72 hours
From the text: as §1

[10] = system: HCC1395; assay: Cell viability IC50 (WST-8), HCC1395; format: cell-based, human; details: HCC1395, TDP Score 0.118, 72 hours
From the text: as §1

[11] = system: Hs578T; assay: Cell viability IC50 (WST-8), Hs578T; format: cell-based, human; details: TDP Score −0.54, 72 hours
From the text: as §1

[12] = system: HCC1187; assay: Cell viability IC50 (WST-8), HCC1187; format: cell-based, human; details: HCC1187, TDP Score 0.152, 72 hours
From the text: as §1

[13] = system: HCC1143; assay: Cell viability IC50 (WST-8), HCC1143; format: cell-based, human; details: HCC1143, TDP Score −0.424, 72 hours
From the text: as §1

[14] = system: MB231; assay: Cell viability IC50 (WST-8), MB231; format: cell-based, human; details: MB231, TDP Score −0.306, 72 hours
From the text: as §1

[15] = system: HCC70; assay: Cell viability IC50 (WST-8), HCC70; format: cell-based, human; details: HCC70, TDP Score −0.3, 72 hours
From the text: as §1

[16] = system: MB436; assay: Cell viability IC50 (WST-8), MB436; format: cell-based, human; details: MB436, TDP Score 0.469, 72 hours
From the text: as §1

[17] = system: HCC38; details: HCC38, TNBC, TDP, TDP Score 0.367; GDSC data base; cited from earlier work
[18] = system: MCF-7; details: MCF-7, ER/PR+, TDP, TDP Score 0.385; GDSC data base; cited from earlier work
[19] = system: HCC1954; details: HCC1954, ERBB2+, non-TDP, TDP Score −0.434; GDSC data base; cited from earlier work
[20] = system: T47D; details: ER/PR+, non-TDP, TDP Score −0.269, GDSC data base; cited from earlier work
[21] = system: HCC1937; details: HCC1937, TNBC, non-TDP, TDP Score −0.17; GDSC data base; cited from earlier work
[22] = system: HCC1395; details: HCC1395, TNBC, TDP, TDP Score 0.118; GDSC data base; cited from earlier work
[23] = system: MB231; details: MB231, TNBC, non-TDP, TDP Score −0.306; GDSC data base; cited from earlier work
[24] = system: TNBC patient derived xenograft (PDX) models; assay: In vivo response in patient derived xenograft (PDX) models of TNBC; parameters: species or system mice; details: for association of the TDP with sensitivity in PDX models: same eight TNBC PDX models, data not shown
From the text: This hypothesis was explored further by testing in vivo response to cisplatin treatment in eight independent patient derived xenograft (PDX) models of TNBC. […] Thus in both established cell lines and in in vivo patient derived xenografts, TDP status is strongly associated with cisplatin sensitivity.
TNBC patient-derived xenograft models were established at The Jackson Laboratory campus in Sacramento (JAX-West) and tested for cisplatin sensitivity as previously published. All animal procedures were performed under IACUC protocol #12027. Briefly, patient tumor material acquired from biopsy or surgical resection was implanted subcutaneously into the flank of NOD-scid IL2r gamma-chain null female mice (8-10 week-old). Models were considered “established” when log-phase growth in a second passage was evident. Individual tumor-bearing mice were randomized into treatments cohorts of at least six animals each on an accrual basis when tumors reached a volume of 150 mm^3 (day 0), at which point each tumor model was assessed for its response to cisplatin treatment, administrated at a dose of 2 mg/kg body weight and following a three-week regimen consisting of one IV injection per week. Changes in tumor volumes were measured twice a week for four full weeks from the beginning of the treatment or until tumor volumes reached the 1500 mm^3 endpoint. Treatment outcome was evaluated in terms of total response (percentage of tumor shrinkage/growth at day 20 relative to day 0). The […] TNBC PDX models that were available as part of The Jackson Laboratory inventory of TNBC PDX Live™ tumor-bearing mice were analyzed. In combination with a high number of replicates per model (6-10 animals per treatment arm), enough power to observe the statistically significant effect of the TDP configuration on cisplatin response was obtained.

[25] = system: DU4475; assay: Cell viability IC50 (WST-8), DU4475; format: cell-based, human; details: DU4475, TDP Score −0.36, 72 hours
From the text: as §1

[26] = system: HCC1599; assay: Cell viability IC50 (WST-8), HCC1599; format: cell-based, human; details: HCC1599, TDP Score −0.447, 72 hours
From the text: as §1

COc1cc(N2CCC(N3CCN(C)CC3)CC2)ccc1Nc1ncc(Cl)c(Nc2ccccc2S(=O)(=O)C(C)C)n1 [NVP-TAE684]
IC50 Ln (μM) [1]: 0.38 Ln (μM)
IC50 Ln (μM) [2]: 2.98 Ln (μM)
IC50 Ln (μM) [3]: 0.62 Ln (μM)
IC50 Ln (μM) [4]: 5.37 Ln (μM)

O=C(c1cc(Cc2n[nH]c(=O)c3ccccc23)ccc1F)N1CCN(C(=O)C2CC2)CC1 [Olaparib, olaparib]
IC50 Ln (μM) [5]: 2.40 Ln (μM)
IC50 Ln (μM) [6]: 1.99 Ln (μM)
IC50 Ln (μM) [7]: 4.51 Ln (μM)
IC50 Ln (μM) [8]: 3.09 Ln (μM)
IC50 Ln (μM) [9]: 3.16 Ln (μM)
IC50 Ln (μM) [10]: 4.28 Ln (μM)
IC50 Ln (μM) [11]: 4.61 Ln (μM)
IC50 Ln (μM) [12]: 3.57 Ln (μM)
IC50 Ln (μM) [13]: 4.57 Ln (μM)
IC50 Ln (μM) [14]: 3.49 Ln (μM)
IC50 Ln (μM) [15]: 4.19 Ln (μM)
IC50 Ln (μM) [16]: 3.77 Ln (μM)

Nc1ccn([C@@H]2O[C@H](CO)[C@@H](O)[C@@H]2O)c(=O)n1 [Cytarabine]
IC50 Ln (μM) [17]: 0.63 Ln (μM)
IC50 Ln (μM) [18]: 0.69 Ln (μM)
IC50 Ln (μM) [19]: 3.41 Ln (μM)
IC50 Ln (μM) [20]: 3.47 Ln (μM)
IC50 Ln (μM) [3]: 3.36 Ln (μM)
IC50 Ln (μM) [21]: 3.32 Ln (μM)
IC50 Ln (μM) [22]: 1.1 Ln (μM)
IC50 Ln (μM) [4]: 4.68 Ln (μM)
IC50 Ln (μM) [23]: 2.18 Ln (μM)

CC(=O)O[C@@]12CO[C@@H]1C[C@H](O)[C@@]1(C)C(=O)[C@H](O)C3=C(C)[C@@H](OC(=O)[C@H](O)[C@@H](NC(=O)OC(C)(C)C)c4ccccc4)C[C@@](O)([C@@H](OC(=O)c4ccccc4)[C@H]21)C3(C)C [docetaxel]
association of the TDP with sensitivity in PDX models [24]: not associated with sensitivity

Cc1cc(N2CCOCC2)cc2[nH]c(-c3c(NC[C@@H](O)c4cccc(Cl)c4)cc[nH]c3=O)nc12 [BMS-536924]
IC50 Ln (μM) [1]: 3.64 Ln (μM)
IC50 Ln (μM) [2]: 5.27 Ln (μM)
IC50 Ln (μM) [3]: 2.81 Ln (μM)
IC50 Ln (μM) [4]: 6.22 Ln (μM)

COc1cccc2c1C(=O)c1c(O)c3c(c(O)c1C2=O)C[C@@](O)(C(=O)CO)C[C@@H]3O[C@H]1C[C@H](N)[C@H](O)[C@H](C)O1 [doxorubicin]
association of the TDP with sensitivity in PDX models [24]: not associated with sensitivity

N.N.[Cl][Pt][Cl] [Cisplatin, cisplatin]
IC50 Ln (μM) [5]: 2.76 Ln (μM)
IC50 Ln (μM) [17]: 5.07 Ln (μM)
IC50 Ln (μM) [6]: 2.8 Ln (μM)
IC50 Ln (μM) [19]: 6.94 Ln (μM)
tumor growth compared to the vehicle arm ([24]; all five TDP PDX models, three-week regimen, 2 mg/kg IV weekly): significant reduction in tumor growth
tumor shrinkage of individual tumors (partial response) ([24]; four out of the five TDP PDX models, three-week regimen, 2 mg/kg, one IV injection per week): > 80%
reduction in tumor volume after three weeks of treatment ([24]; three non-TDP PDX models, 2 mg/kg IV weekly): none of the three non-TDP models analyzed exhibited a reduction in tumor volume
response compared to the vehicle arm ([24]; three non-TDP PDX models, three-week regimen, 2 mg/kg IV weekly): only one out of the three models showed a significant response
IC50 Ln (μM) [7]: 3.22 Ln (μM)
IC50 Ln (μM) [8]: 2.28 Ln (μM)
IC50 Ln (μM) [20]: 4.86 Ln (μM)
IC50 Ln (μM) [9]: 2.62 Ln (μM)
IC50 Ln (μM) [25]: 2.04 Ln (μM)
IC50 Ln (μM) [10]: 2.4 Ln (μM)
IC50 Ln (μM) [3]: 4.76 Ln (μM)
IC50 Ln (μM) [11]: 3.62 Ln (μM)
IC50 Ln (μM) [12]: 2.15 Ln (μM)
IC50 Ln (μM) [13]: 3.3 Ln (μM)
IC50 Ln (μM) [14]: 3.52 Ln (μM)
IC50 Ln (μM) [21]: 4.92 Ln (μM)
IC50 Ln (μM) [26]: 2.65 Ln (μM)
IC50 Ln (μM) [22]: 4.96 Ln (μM)
IC50 Ln (μM) [4]: 5.99 Ln (μM)
IC50 Ln (μM) [23]: 5.57 Ln (μM)
IC50 Ln (μM) [15]: 2.75 Ln (μM)
IC50 Ln (μM) [16]: 1.17 Ln (μM)
